# Several values for one entry are separate records, joined by “and”; a condition that tells them apart may be missing. Identical values can stand only once.
# Columns and labels:
# [1] = system: neonatal rat cardiomyocytes (NNCM); experiment: Neutralization of OxPL by E06: OxPL-induced cardiomyocyte cell death with E06 co-treatment; type: cell-based; details: 5 μM lipid alone, 2 hrs
# From the text: Cell culture of rat cardiomyocytes. All animal experiments performed conform to the NIH guidelines regarding animal experimentation. Neonatal rat cardiomyocytes (NNCM) were isolated from 1-2 day old Sprague-Dawley rat pups. Whole hearts were excised from rat pups by midline sternotomy after cervical dislocation. Hearts were washed and minced to adequately break up macroscopic structures before re-washing with cold filter sterilized phosphate buffered saline (PBS) containing 10 g/L of glucose to remove red blood cells and debris. Repeated enzymatic digestion of heart fragments was performed with collagenase (740U), trypsin (370U), and DNase (2880U) (Worthington Biochemical) agitating at 35° C. for three 10-minute and three 7-minute digestions. Digested supernatant solutions were centrifuged into a cell pellet and then separation of cell types using a Percoll® (GE Healthcare) gradient of 1.05, 1.06, and 1.082 g/mL allowed for a layer enriched with myocytes to be isolated. To remove fibroblasts, the cells were pre-plated on non-coated 150 mm culture plates for 45 min. Purified NNCM (95% pure by sarcomere staining) were then transferred to sterile tissue culture plates at a cell density of 1.75×10^6/35-mm plate. Collagen-coated glass coverslips in 24-well tissue culture plates were used for microscopy analysis and NNCM were plated at 3.2×10^5/well. […]
# In vitro OxPC treatment and assessment of cell viability. […] Plates were then washed with PBS before NNCM were analyzed for cell viability using vital dyes, calcein-acetoxymethyl ester (AM) and ethidium homodimer-1 (Invitrogen). Mitochondrial permeability after exposure to OxPL molecules was monitored by fluorescence microscopy using a solution of calcein-AM fluorescent dye with cobalt chloride (CoCl2) applied to cardiomyocytes cultured on glass coverslips.
# To evaluate the effect of neutralizing OxPL on cell viability, the IgM E06 antibody was used at a concentration of 10 μg/mL within cell culture. […] Cell viability was assessed as described above. […] Images were assessed using Adobe Photoshop CS5.1 Software.
# [2] = system: neonatal rat cardiomyocytes (NNCM); experiment: In vitro OxPC treatment and assessment of cell viability (calcein-AM / ethidium homodimer-1); type: cell-based; details: 4 hours
# From the text: Cell culture of rat cardiomyocytes. All animal experiments performed conform to the NIH guidelines regarding animal experimentation. Neonatal rat cardiomyocytes (NNCM) were isolated from 1-2 day old Sprague-Dawley rat pups. Whole hearts were excised from rat pups by midline sternotomy after cervical dislocation. Hearts were washed and minced to adequately break up macroscopic structures before re-washing with cold filter sterilized phosphate buffered saline (PBS) containing 10 g/L of glucose to remove red blood cells and debris. Repeated enzymatic digestion of heart fragments was performed with collagenase (740U), trypsin (370U), and DNase (2880U) (Worthington Biochemical) agitating at 35° C. for three 10-minute and three 7-minute digestions. Digested supernatant solutions were centrifuged into a cell pellet and then separation of cell types using a Percoll® (GE Healthcare) gradient of 1.05, 1.06, and 1.082 g/mL allowed for a layer enriched with myocytes to be isolated. To remove fibroblasts, the cells were pre-plated on non-coated 150 mm culture plates for 45 min. Purified NNCM (95% pure by sarcomere staining) were then transferred to sterile tissue culture plates at a cell density of 1.75×10^6/35-mm plate. Collagen-coated glass coverslips in 24-well tissue culture plates were used for microscopy analysis and NNCM were plated at 3.2×10^5/well. Cells were incubated overnight in Dulbecco's Modified Eagle Medium/Ham's nutrient mixture F-12 (1:1) containing 2 mM glutamine, 3 mM NaHCO3, 15 mM HEPES, and […] gentamycin (DMEM/F12) plus 10% fetal bovine serum (FBS). DMEM/F12 with 10% FBS was changed to serum-free DMEM/F12 (DFSF) the following day. Control solution consisted of 140 mM NaCl, 6 mM KCl, 1.25 mM CaCl2, 6 mM HEPES, and 10 mM D-glucose buffered to pH 7.4, ischemic solution was buffered to pH 6.0, and consisted of the same components, except 8 mM KCl was added and no D-glucose was added. The ischemic buffer was purged of oxygen by bubbling 95% N2 and 5% CO2 gas into the medium for 1 hour before being applied to cells. A hypoxic chamber designed for storage in a 37° C. water jacketed tissue culture incubator was used to maintain an atmosphere of 95% N2 and 5% CO2 gas conditions for 18 hours overnight. Reperfusion was achieved by applying control buffer to cells for 4 hours in a normal culture incubator. After the treatment, cells were scraped off into a small portion of PBS. Cardiomyocyte cell lysates were subjected to Western Blot analysis.
# In vitro OxPC treatment and assessment of cell viability. Fresh DFSF was applied to NNCM on glass cover-slips and supplemented with 1, 2, 5, and 10 μM concentrations of OxPL lipids sonicated into PBS, forming micelles. Four OxPL species, POVPC, PONPC, PGPC, and PAzPC were applied to NNCM plates for 4 hours and compared to a non-oxidized PC standard PSPC. Plates were then washed with PBS before NNCM were analyzed for cell viability using vital dyes, calcein-acetoxymethyl ester (AM) and ethidium homodimer-1 (Invitrogen). Mitochondrial permeability after exposure to OxPL molecules was monitored by fluorescence microscopy using a solution of calcein-AM fluorescent dye with cobalt chloride (CoCl2) applied to cardiomyocytes cultured on glass coverslips.
# [3] = Binding properties of E06-scFv secreted into HEK293 culture supernatant; details: E06-scFv in HEK293 culture supernatant
# From the text: (§1) Generation and characterization of E06-scFv transgenic mice. The generation of transgenic C57BL/6 mice expressing the T15/E06 idiotype as a single chain variable antibody fragment—termed E06-scFv-Tg. In brief, the cDNAs encoding E06 variable regions of the heavy and light chains were linked with a 15-amino acid peptide by overlapping PCR, and cloned into an expression vector pSecTag2A (Invitrogen) containing a murine Ig kappa-chain leader sequence for secretion and c-myc and polyHis as epitope tags. […] The same construct was then cloned into the liver-specific expression vector pLiv7 and used to generate transgenic (Tg) mice in the C57BL/6 background expressing the E06-scFv transgene driven by the apoE promoter. Offspring were screened both for plasma E06-scFv titer and integration of the transgene by PCR amplification of the tail DNA. The transgenic E06-scFv founder lines were bred with each other to generate “homozygous” transgenic mice, and in turn, these were crossed into Ldl^−/− mice on the C57BL/6 background. All animals were genotyped for E06-scFv and Ldlr^−/−, respectively and plasma assayed to confirm expression of the E06-scFv by immunoassay. The E06-scFv mRNA was strongly expressed in liver, peritoneal macrophages and spleen, and to a lesser extent in heart. Plasma levels of the E06-scFv averaged 20-30 μg/ml in these studies.
# E06-scFv-Tg/Ldlr−/− mice = experiment: Myocardial ischemia-reperfusion (LAD ligation), histologic infarct size in E06-scFv-Tg/Ldlr−/− mice; type: in vivo, mouse
# From the text: as §1
# Adult (18-20-week-old) E06-scFv-Tg/Ldlr^−/− mice or Ldlr^−/− mice weighing 16-40 grams, were anesthetized with a mixture of Ketamine (50 mg/kg) and Xylazine (5 mg/kg) and 1.0% isoflurane. Mice were intubated with a pressure ventilator (Kent Scientific, PhysioSuite. Peak inspiration pressure was ˜13 cm H2O and inspiration rate 100-110. The skin over the mid thorax was shaved and cleansed with Betadine or Chlorhexidine solution. A skin incision was made from the midsternal line toward the left armpit, and the chest opened with a 1 cm lateral cut along the left side of the sternum, cutting between the 3rd and 4th ribs to expose the left ventricle of the heart. The ascending aorta and main pulmonary artery were identified; the left anterior descending (LAD) coronary artery was located as it traverses the anterior wall of the heart, between the left and right ventricles. LAD coronary artery occlusion was performed by tying an 8-0 prolene suture ligature on a piece of 2-0 silk suture. Occlusion of the artery was assessed by blanching of the territory of perfusion of the LAD coronary artery, along with acute ST segment elevation on limb-lead electrocardiographic leads. Following an ischemic period of 60 minutes, the suture was removed from around the LAD coronary artery. […]
# Histologic assessment of infarct size. […] The sizes of AAR and infarct area (IA) were quantified by computerized planimetry using ImageJ. […]
# [4] = Plasma levels of E06-scFv in transgenic mice (immunoassay); type: in vivo, mouse; details: transgenic mice constitutively expressing E06-scFv (apoE promoter)
# From the text: as §1
# [5] = E06-scFv-Tg/Ldlr−/− mice, 7 days after 60 minutes LAD ischemia and reperfusion
# [6] = E06-scFv-Tg/Ldlr−/− vs Ldlr−/− mice, 7 days after IR
Molecule,cell death without E06 [1] [%],cell death ([2]; 1 μM lipid) [%],cell death ([2]; 2 μM lipid) [%],cell death ([2]; 5 μM lipid) [%],cell death ([2]; 10 μM lipid) [%],binding properties compared with intact E06 [3],IA/AAR (infarct area as percentage of area at risk) (E06-scFv-Tg/Ldlr−/− mice; [5]) [%],IA/LV (infarct area as percentage of left ventricle) (E06-scFv-Tg/Ldlr−/− mice; [5]) [%],smaller IA/AAR compared to Ldlr−/− mice (E06-scFv-Tg/Ldlr−/− mice; [6]) [%],smaller IA/LV compared to Ldlr−/− mice (E06-scFv-Tg/Ldlr−/− mice; [6]),plasma levels of E06-scFv [4] [ng/mL]
"CCCCCCCCCCCCCCCC(=O)OC[C@H](COP(=O)([O-])OCC[N+](C)(C)C)OC(=O)CCCCCCCC=O [PONPC, 1-palmitoyl-2-(9-oxo)nonanoyl-sn-glycero-3-phosphocholine]",25.3±3.4,28.3±8.9,42.0±6.2,70.0±18.6,–,–,–,–,–,–,–
"CCCCCCCCCCCCCCCC(=O)OC[C@H](COP(=O)([O-])OCC[N+](C)(C)C)OC(=O)CCCC=O [POVPC, 1-palmitoyl-2-(5-oxovaleroyl)-sn-glycero-3-phosphocholine]",22.6±4.14,–,–,–,68.6±14.8,–,–,–,–,–,–
CCCCCCCCCCCCCCCCCC(=O)O[C@H](COC(=O)CCCCCCCCCCCCCCC)COP(=O)([O-])OCC[N+](C)(C)C [PSPC],6.2±1.6,7.6±5.1,9.1±10.5,10.5±1.6,5.5±1.6,–,–,–,–,–,–
"E06-scFv: single chain variable antibody fragment of E06 (heavy and light variable regions joined by 15-amino acid linker), expressed in transgenic mice (protein) scFv: DAAQPARRAVRSLDIVMTQSPSSLSVSAGKKVTISCTASESLYSSKHKVHYLAWYQKKPEQSPKLLIYGASNRYIGVPDRFTGSGSGTDFTLTISSVQVEDLTHYYCAQFYSYPLTFGAGTKLEIKGGGGSGGGGSGGGGSEVKLVESGGGLVQPGGSLRLSCATSGFTFSDFYMEWVRQAPGKRLEWIAASRNKANDYTTEYADSVKGRFIVSRDTSQSILYLQMNALRAEDTAIYYCARDYYGSSYWYFDVWGAGTTVTVSSRGGPEQKLISEEDLNSAVD",–,–,–,–,–,mimic those of the intact E06,47.7±17.6,16.3±7.5,65.9,58.8% and 58.5%,20000 to 30000
